≈ marks a conversion by molar mass, not a printed value. One block for each molecule: values may come before it.
How the values were obtained:
[1] = randomized open-label pharmacokinetic study of oral-mucosal tablets versus oral 8 mg tablet; type: in vivo, human; details: for AUC(0-t) / Cmax: human serum, mean, N=6, measurement substance = label
Procedure: A randomized, open-label study to assess the pharmacokinetic parameters of an oral-mucosal tablet containing Compound A and its bioavailability relative to an oral 8 mg tablet containing Compound A was performed.
The test was conducted in two parts: (1) a parallel-group design to evaluate the pharmacokinetic parameters of 3 doses of Compound A (0.25, 0.5 and 1 mg) in oral-mucosal tablets and (2) an open-label, randomized 2-period crossover design to assess the relative bioavailability (pharmacokinetic profile) of the oral-mucosal 0.5 mg tablet compared with the bioavailability of the oral 8 mg tablet.
For part (1), a total of 18 subjects were randomly assigned to 1 of the 3 dosing regimens (i.e., 0.25, 0.5 and 1 mg; 6 subjects per dose) and each subject received a single dose of Compound A at the assigned dose.
For part (2), a total of 24 subjects were randomly assigned to take either the oral-mucosal 0.5 mg tablet or the oral 8 mg tablet at a single dose during each of the two periods.
To evaluate the studies, the pharmacokinetic parameters of Compound A and M-II were measured, including maximum observed serum concentration (Cmax) and area under the serum concentration-time curve from time 0 to the last quantifiable concentration (AUC(0-tlqc)).

[2] = blood kinetics of unchanged form and active metabolite M-II after oral or sublingual administration to human (cross-over, open-label); type: in vivo; details: for Cmax: serum, mean
Procedure: Oral preparation and preparation for oral-mucosal absorption were measured for blood kinetics of unchanged form and active metabolite M-II after oral or sublingual administration to human. The plasma concentration before administration, and 5 min, 10 min, 15 min, 20 min, 30 min, 45 min, 60 min, 90 min, 120 min, 180 min, 240 min, 360 min, 480 min, 600 min, 720 min and 1440 min after administration was measured.
To be specific, symbol/term and definition thereof in this table are explained in the following. The study was conducted by cross-over method under open-label condition.
AUC(0-tlqc): Area under the serum concentration-time curve from time 0 to time of the last quantifiable concentration (tlqc), calculated using the linear trapezoidal rule.
AUC(0-inf): Area under the serum concentration-time curve from time 0 to infinity, calculated as AUC(0-inf)=AUC(0-tlqc)+lqc/λz, where tlqc is the time of last quantifiable concentration and lqc is the last quantifiable concentration. λz: Terminal elimination rate constant, calculated as the negative of the slope of the log-linear regression of the natural logarithm concentration-time curve during the terminal phase. Cmax: Maximum observed serum concentration. Tmax: Time to reach Cmax. Active metaboline M-II: (2S)-2-Hydroxy-N-{2-[(8S)-1,6,7,8-tetrahydro-2H-indeno[5,4-b]furan-8-yl]ethyl}propanamide

[3] = tested on: patients suffering from bipolar disorder and in the remission phase; assay: maintenance of remission phase in patients with bipolar disorder, double-blind randomized placebo-controlled trial; type: in vivo, human; details: oral 8 mg once daily at bedtime
Procedure: Oral 8 mg formulation containing Compound A The test tablet was administered to a group of patients suffering from bipolar disorder and in the remission phase, once daily at bedtime for 6 months. A placebo was administered once daily at bedtime to a separate control group of patients in the remission phase of bipolar disorder for 6 months. This study was performed as a double-blind, randomized, placebo-controlled trial. The time from randomization to relapse over 6 months of treatment is determined by the Primary Investigator (PI) or defined by any of the following criteria: depression [Montgomery-Asberg Depression Rating Scale (MADRS) score ≧16]; mania/hypomania [Young Mania Rating Scale (YMRS) total score ≧14]; clinical global impressions bipolar version (CGI-BP); cumulative proportion of participants in each arm (placebo or Compound A) surviving without relapse [MADRS score ≧16 and YMRS total score ≧14], a medication initiation or change for manic/depressed/mixed symptoms, a hospitalization for manic/depressed/mixed symptoms and suicide risk or imminent risk of suicide.

[4] = tested on: patients suffering from bipolar disorder; assay: acute depression in patients with bipolar disorder, double-blind randomized placebo-controlled trial (CGI-BP); type: in vivo, human; details: oral 8 mg once daily up to 8 weeks; value below 0 favors Compound A; 95% CI; N=9; P value=0.001
solubility of compound A = type: physicochemical; details: irrespective of pH
[5] = single oral-mucosal tablet dose of Compound A 0.25 mg
[6] = single oral-mucosal tablet dose of Compound A 0.5 mg
[7] = single oral-mucosal tablet dose of Compound A 1 mg

AUC(0-t) [1, 5]: 4.64 ng·h/mL
Cmax [1, 5]: 1.85 ng/mL
AUC(0-t) [1, 6]: 10.5 ng·h/mL
Cmax [1, 6]: 3.74 ng/mL
AUC(0-t) [1, 7]: 20.2 ng·h/mL
Cmax [1, 7]: 7.68 ng/mL
fraction of exposure compared to the approved oral 8 mg tablet ([1]; oral-mucosal administration 0.5 mg): < 7%
SMILES: C[C@H](O)C(=O)NCC[C@@H]1CCc2ccc3c(c21)CCO3 [M-II, (2S)-2-Hydroxy-N-{2-[(8S)-1,6,7,8-tetrahydro-2H-indeno[5,4-b]furan-8-yl]ethyl}propanamide]

SMILES: CCC(=O)NCC[C@@H]1CCc2ccc3c(c21)CCO3 [compound A, (S)—N-[2-(1,6,7,8-tetrahydro-2H-indeno[5,4-b]furan-8-yl)ethyl]propionamide]
AUC(0-inf) unchanged/metabolite ratio ([2]; oral administration): 0.03
Cmax unchanged/metabolite ratio ([2]; oral administration): 0.07
Cmax ([2]; oral, dose 8 mg): 4.76 ± 5.19 ng/mL
Cmax ([2]; sublingual, dose 0.5 mg): 4.74 ng/mL
AUC(0-inf) unchanged/metabolite ratio ([2]; sublingual administration): 0.30
Cmax unchanged/metabolite ratio ([2]; sublingual administration): 1.13
Cumulative Proportion of Patients in each arm surviving without relapse ([3]; Baseline): 1.00
Cumulative Proportion of Patients in each arm surviving without relapse ([3]; Month 1): 0.929
Cumulative Proportion of Patients in each arm surviving without relapse ([3]; Month 2): 0.849
Cumulative Proportion of Patients in each arm surviving without relapse ([3]; Month 3): 0.716
Cumulative Proportion of Patients in each arm surviving without relapse ([3]; Month 4): 0.661
Cumulative Proportion of Patients in each arm surviving without relapse ([3]; Month 5): 0.632
Cumulative Proportion of Patients in each arm surviving without relapse ([3]; Month 6): 0.566
CGI-BP severity for depression, longitudinal analysis of change in outcome [4]: −0.1 (−0.16 to −0.05)
AUC(0-t) [1, 5]: 2.6 ng·h/mL
Cmax [1, 5]: 3.14 ng/mL
AUC(0-t) [1, 6]: 6.23 ng·h/mL
Cmax [1, 6]: 5.85 ng/mL
AUC(0-t) [1, 7]: 7.87 ng·h/mL
Cmax [1, 7]: 9.57 ng/mL
solubility (solubility of compound A): ~200 µg/mL (≈ 771 µM)
